Measurements published in patent publication US20240043404A1 (AbbVie Inc., priority 2009, published 2024).
pEC50: −log10 of the molar value.

Tested on: RS4;11 cells
Test: RS4;11 cell viability assay (CellTiter Glo);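 further: acute lymphoblastic leukemia line RS4,11, EC50 derived from percentage of viable cells after treatment relative to untreated controls, cell killing taken as a measure of Bcl-2 inhibition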
Assay type: cell-based, human
Details: Homo sapiens, RS4-11, 48 h, 50,000 cells per well, 10% human serum, 48 hours; read-out: RS4; 11 EC50 Values
Protocol: The acute lymphoblastic leukemia (ALL) cell line RS4;11 was used as the primary human cell line to assess the cellular activity of Bcl-2 selective agents in vitro and their efficacy in vivo.
Cell cytotoxicity EC50 values were assessed using CellTiter Glo (Promega) according to the manufacturer's recommendations. The EC50 values were determined as a percentage of viable cells following treatment compared to the untreated control cells.

Row | pEC50 | SMILES
1 | 7.94 | CC1(C)CCC(c2ccc(Cl)cc2)=C(CN2CCN(c3ccc(C(=O)NS(=O)(=O)c4ccc(OCC5(F)CCOCC5)c([N+](=O)[O-])c4)c(Oc4cnc5[nH]ccc5c4)c3)CC2)C1 [Example 119, 4-(4-{[2-(4-chlorophenyl)-5,5-dimethylcyclohex-1-en-1-yl]methyl}piperazin-1-yl)-N-({4-[(4-fluorotetrahydro-2H-pyran-4-yl)methoxy]-3-nitrophenyl}sulfonyl)-2-(1H-pyrrolo[2,3-b]pyridin-5-yloxy)benzamide]
2 | 7.30 | CC1(C)CCC(CN2CCN(c3ccc(C(=O)NS(=O)(=O)c4cnc(OCC5CCN(CC#N)CC5)c(Cl)c4)c(Oc4cnc5[nH]ccc5c4)c3)CC2)=C(c2ccc(Cl)cc2)C1 [Example 253, N-[(5-chloro-6-{[1-(cyanomethyl)piperidin-4-yl]methoxy}pyridin-3-yl)sulfonyl]-4-(4-{[2-(4-chlorophenyl)-4,4-dimethylcyclohex-1-en-1-yl]methyl}piperazin-1-yl)-2-(1H-pyrrolo[2,3-b]pyridin-5-yloxy)benzamide]
3 | 7.90 | CC1(C)CCC(CN2CCN(c3ccc(C(=O)NS(=O)(=O)c4ccc(OCC5COCCN5)c([N+](=O)[O-])c4)c(Oc4cnc5[nH]ccc5c4)c3)CC2)=C(c2ccc(Cl)cc2)C1 (stereo not shown) [Example 78, 4-(4-{[2-(4-chlorophenyl)-4,4-dimethylcyclohex-1-en-1-yl]methyl}piperazin-1-yl)-N-{[4-(morpholin-3-ylmethoxy)-3-nitrophenyl]sulfonyl}-2-(1H-pyrrolo[2,3-b]pyridin-5-yloxy)benzamide]
4 | 6.33 | CCN(C)C(=O)N1CCOC(CNc2ccc(S(=O)(=O)NC(=O)c3ccc(N4CCN(CC5=C(c6ccc(Cl)cc6)CC(C)(C)CC5)CC4)cc3Oc3cnc4[nH]ccc4c3)cc2Cl)C1 (stereo not shown) [Example 333, 2-{[(2-chloro-4-{[4-(4-{[2-(4-chlorophenyl)-4,4-dimethylcyclohex-1-en-1-yl]methyl}piperazin-1-yl)-2-(1H-pyrrolo[2,3-b]pyridin-5-yloxy)benzoyl]sulfamoyl}phenyl)amino]methyl}-N-ethyl-N-methylmorpholine-4-carboxamide]
5 | 8.14 | O=C(NS(=O)(=O)c1ccc(NCC2CCOCC2)c([N+](=O)[O-])c1)c1ccc(N2CCN(CC3=C(c4ccc(Cl)cc4)CCC4(CCN(C(CF)CF)CC4)C3)CC2)cc1Oc1cnc2[nH]ccc2c1 [Example 265, 4-(4-{[9-(4-chlorophenyl)-3-(1,3-difluoropropan-2-yl)-3-azaspiro[5.5]undec-8-en-8-yl]methyl}piperazin-1-yl)-N-({3-nitro-4-[(tetrahydro-2H-pyran-4-ylmethyl)amino]phenyl}sulfonyl)-2-(1H-pyrrolo[2,3-b]pyridin-5-yloxy)benzamide]
6 | 6.14 | CC1(C)CCC(CN2CCN(c3ccc(C(=O)NS(=O)(=O)c4ccc(OCC5CCOC5)c(Cl)c4)c(Oc4cnc5[nH]ccc5c4)c3)CC2)=C(c2ccc(Cl)cc2)C1 (stereo not shown) [Example 323, 4-(4-{[2-(4-chlorophenyl)-4,4-dimethylcyclohex-1-en-1-yl]methyl}piperazin-1-yl)-N-{[3-chloro-4-(tetrahydrofuran-3-ylmethoxy)phenyl]sulfonyl}-2-(1H-pyrrolo[2,3-b]pyridin-5-yloxy)benzamide]
7 | 7.27 | CC1(C)CCC(CN2CCN(c3ccc(C(=O)NS(=O)(=O)c4ccc(OCC5(F)CCN(C(=O)OC(C)(C)C)CC5)c([N+](=O)[O-])c4)c(Oc4cnc5[nH]ccc5c4)c3)CC2)=C(c2ccc(Cl)cc2)C1 [Example 126, tert-butyl 4-{[4-({[4-(4-{[2-(4-chlorophenyl)-4,4-dimethylcyclohex-1-en-1-yl]methyl}piperazin-1-yl)-2-(1H-pyrrolo[2,3-b]pyridin-5-yloxy)benzoyl]amino}sulfonyl)-2-nitrophenoxy]methyl}-4-fluoropiperidine-1-carboxylate]
